Patent publication US7129361B2, “Thienylazolylalkoxyethanamines, their preparation and their application as medicaments” (Laboratorios del Dr. Esteve, S.A., priority 1998, dated 2006)

Experiments:
Male Swiss mice = experiment: Analgesic activity: inhibition of contortions induced by phenylbenzoquinone in mice (Siegmund method); assay type: in vivo; conditions: 160 mg/Kg, oral administration, 60 minutes before i.p. phenylbenzoquinone; contortions counted for 15 minutes; versus vehicle control
Experimental: Analgesic Activity: Inhibition of Contortions Induced by Phenylbenzoquinone in Mice
The method described by Siegmund (E. Siegmund, et al, Proc. Exp. Biol. Med., 1957, 95, 729) has been used. Male Swiss mice are used, weighing between 17 and 22 grams and in groups of at least four animals.
The contortions are induced by injecting i.p. phenyl-p-benzoquinone (25 ml/Kg of a solution of 0.02% ethanol/water −5% v/v—with Evans blue at a mixing ratio of 0.1% p/v). The contortions are counted for 15 minutes after the moment of the injection. The products to be tested are suspended in Arabic gum (5% p/v) and distilled water and administered orally, at a dosage of 160 mg/Kg, 60 minutes before the phenylbenzoquinone injection. The inhibition of contortions produced by each product is determined, taking the contortions of a group of animals given a control as a reference. These animals only receive the vehicle orally, 60 minutes before administration of phenylbenzoquinone.

melting point	Structure (SMILES)	% Inhibition of contortions (Male Swiss mice)
–	CN(C)CCOC(c1cccs1)c1ccnn1C (stereo not drawn) [Example 1, 5-{α-[2-(dimethylamino)ethoxy]-2-thienylmethyl}-1-methyl-1H-pyrazol]	71%
–	CC(=O)Nc1ccc(O)cc1 [N-acetyl-p-aminophenol, reference compound]	34%
–	CN(C)CCOC(c1cccs1)c1ccnn1C.O=C(O)CC(O)(CC(=O)O)C(=O)O (stereo not drawn) [Example 13, Citrate of (−)-5-{α-[2-(dimethylamino)ethoxy]-2-thienylmethyl}-1-methyl-1H-pyrazol]	87%
–	CN(C)CCOC(C)(c1cccs1)c1ccnn1C (stereo not drawn) [Example 9, 5-{1-[2-(dimethylamino)ethoxy]-1-(2-thienyl)ethyl}-1-methyl-1H-pyrazol]	37%
–	Cc1ccsc1C(OCCN(C)C)c1ccnn1C (stereo not drawn) [Example 5, 5-{α-[2-(dimethylamino)ethoxy]-3-methyl-2-thienylmethyl}-1-methyl-1H-pyrazol]	45%
–	CC(=O)Oc1ccccc1C(=O)O [Acetylsalicylic acid, reference compound]	51%
–	CN(C)CCOC(c1cccs1)c1ccnn1C.O=C(O)CC(O)(CC(=O)O)C(=O)O (stereo not drawn) [Example 12, Citrate of (+)-5-{α-[2-(dimethylamino)ethoxy]-2-thienylmethyl}-1-methyl-1H-pyrazol]	52%
130 to 131 °C	Cn1nccc1C(C)(O)c1cccs1 (stereo not drawn) [Example 21, 5-[1-hydroxy-1-(2-thienyl)ethyl]-1-methyl-1H-pyrazol]	–
–	CN(C)CCOC(c1cccs1)c1ccnn1C.O=C(O)CC(O)(CC(=O)O)C(=O)O (stereo not drawn) [Example 2, Citrate of 5-{α-[2-(dimethylamino)ethoxy]-2-thienylmethyl}-1-methyl-1H-pyrazol]	65%
